Measurements: patent EP4603105A1, “PHARMACEUTICAL COMPOSITION CONTAINING CYCLIC COMPOUND HAVING SELECTIVE KRAS INHIBITORY EFFECT AGAINST HRAS AND NRAS” (CHUGAI SEIYAKU KABUSHIKI KAISHA, priority 2022, dated 2024)

What was measured:
[1] = target: GDP-bound KRAS wild-type protein (Homo sapiens, UniProt P01116); experiment: Binding to KRAS by surface plasmon resonance (SPR), dissociation constant KD
Procedure, shortened: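 GDP-loaded biotinylated Avi-tag RAS proteins (E. coli-expressed) captured on a Biotin CAPture chip at ~100–300 RU; single-cycle kinetics at 30°C, 100 µL/min, 75 s injections of rising compound concentrations. HBS pH 7.4 running buffer with 1 mM DTT, 10 mM MgCl2, 10 µM GDP, 4% DMSO. KD from 1:1 binding fit.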

[2] = target: GDP-bound NRAS wild-type protein (Homo sapiens, UniProt P01111); experiment: Binding to NRAS by surface plasmon resonance (SPR), KD and KD ratio to KRAS; conditions: ratio of KD for GDP-bound NRAS wild-type protein to KD for KRAS
Procedure, shortened: (§1)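 Running buffer contained 10 µM GDP and 10 mM MgCl2 to keep RAS in the GDP state, with 4% DMSO at pH 7.4. Compounds were flowed at 100 µL/min in 75 s steps of rising concentration over captured biotin-Avi RAS at 30°C. Sensorgrams were fitted 1:1 for KD.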

[3] = test system: human bladder cancer strain UM-UC-3; format: cell-based
Procedure, shortened: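 UM-UC-3 human bladder cancer cells were seeded at 250 cells/well onto serially diluted compound in MEM with 10% FBS. Viability was read as CellTiter-Glo luminescence.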

[4] = test system: human pancreatic cancer strain KP4; format: cell-based
Procedure, shortened: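 KP4 pancreatic cancer cells seeded at 500 cells/well in DMEM/Ham's F-12 with 10% FBS onto serially diluted compound. Viability read by CellTiter-Glo luminescence.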

[5] = test system: human colorectal cancer strain GP2d; format: cell-based
Procedure, shortened: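 Cells seeded at 500 cells/well in DMEM with 10% FBS onto serially diluted compound in DMSO, then cultured 7 days at 37°C, 5% CO2. Viability read by CellTiter-Glo luminescence.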

[6] = test system: human ovarian cancer strain OV7; format: cell-based
Procedure, shortened: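 OV7 cells, 250 per well, in DMEM/Ham's F-12 with 5% FBS, 0.5 µg/mL hydrocortisone and 10 µg/mL insulin, grown 7 days at 37°C with serially diluted compound. Viability by CellTiter-Glo luminescence.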

[7] = test system: human lung cancer strain NCI-H441; format: cell-based
Procedure, shortened: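 Step one: dispense the test compound in serial DMSO dilutions. Step three: add the reagent and measure […].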

HRAS wild-type protein = HRAS wild-type protein (Homo sapiens, UniProt P01112); experiment: Binding to HRAS by surface plasmon resonance (SPR), KD and KD ratio to KRAS; conditions: ratio of KD for HRAS wild-type protein to KD for KRAS
Procedure, shortened: as §1

[8] = test system: human gastric cancer strain SNU-1; format: cell-based
Procedure, shortened: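 SNU-1 gastric cancer cells, 250 cells/well in RPMI-1640 with 10% FBS, glucose, HEPES and sodium pyruvate, plated onto serially diluted compound in DMSO.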

[9] = test system: human gastric cancer strain GSU; format: cell-based
Procedure, shortened: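 Cells seeded at 200 per well in RPMI-1640 with 10% FBS onto serially diluted compound (DMSO) in U-bottom plates. Viability read by CellTiter-Glo luminescence.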

Sequence of GDP-bound KRAS wild-type protein (P01116 1-188 isoform P01116-2): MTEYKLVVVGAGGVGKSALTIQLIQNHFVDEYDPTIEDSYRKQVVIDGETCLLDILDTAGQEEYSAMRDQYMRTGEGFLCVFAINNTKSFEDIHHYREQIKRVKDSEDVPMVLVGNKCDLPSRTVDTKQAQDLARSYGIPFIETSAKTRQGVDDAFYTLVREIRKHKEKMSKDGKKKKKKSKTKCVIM
Sequence of GDP-bound NRAS wild-type protein (P01111 whole entry): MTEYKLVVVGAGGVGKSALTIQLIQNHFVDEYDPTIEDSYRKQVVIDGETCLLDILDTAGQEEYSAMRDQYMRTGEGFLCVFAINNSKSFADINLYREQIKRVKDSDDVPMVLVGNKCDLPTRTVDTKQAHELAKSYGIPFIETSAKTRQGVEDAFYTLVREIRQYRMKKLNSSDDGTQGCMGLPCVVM
Sequence of HRAS wild-type protein (P01112 whole entry): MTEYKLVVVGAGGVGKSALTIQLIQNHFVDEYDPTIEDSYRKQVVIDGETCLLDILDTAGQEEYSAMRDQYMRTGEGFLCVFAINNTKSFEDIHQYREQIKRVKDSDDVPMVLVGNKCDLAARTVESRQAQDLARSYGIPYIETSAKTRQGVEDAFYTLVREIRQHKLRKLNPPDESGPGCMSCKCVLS

SMILES | Kd ([1]; Single Cycle Kinetics) [nM] | NRAS /KRAS [2] | IC50 [3] [nM] | IC50 [4] [nM] | IC50 [5] [nM] | IC50 [6] [nM] | IC50 [7] [nM] | HRAS /KRAS (HRAS wild-type protein) | IC50 [8] [nM] | IC50 [9] [nM] | Kd ([1]; 1:1 binding model) [nM]
CCO[C@@H]1C[C@H]2C(=O)NC3(CCCC3)C(=O)N(C)[C@@H](C3CCCC3)C(=O)N(C)[C@H](C(=O)N(C)C)CC(=O)N(C)[C@@H](CC(C)C)C(=O)N[C@@H]([C@@H](C)CC)C(=O)N(C)CC(=O)N(C)[C@H]3C/C=C\CCN(C3=O)[C@@H](Cc3ccc(C)cc3)C(=O)N(C)CC(=O)N[C@@H](CCc3cc(F)c(C(F)(F)F)c(F)c3)C(=O)N2C1 [PP3478, (2S,8S,12R,14S,20S,23S,27S,30S,36S,38Z)-20-cyclopentyl-8-[2-[3,5-difluoro-4-(trifluoromethyl)phenyl]ethyl]-12-ethoxy-27-isobutyl-N,N,4,19,22,26,32,35-octamethyl-30-[(1S)-1-methylpropyl]-3,6,9,15,18,21,25,28,31,34,42-undecaoxo-2-(p-tolylmethyl)spiro[1,4,7,10,16,19,22,26,29,32,35-undecazatricyclo[34.5.1.0^10,14]dotetracont-38-ene-17,1'-cyclopentane]-23-carboxamide] | 0.11 | A (a compound having 10 or more and less than 20 is denoted as A) | 2.9 | 15.1 | 5.1 | 14.4 | 5.8 | A (a compound having 10 or more and less than 20 is denoted as A) | 4 | 0.9 | 
CCC[C@H]1C(=O)N[C@@H]([C@@H](C)CC)C(=O)N(C)CC(=O)N(C)[C@H]2C/C=C\CCN(C2=O)[C@@H](Cc2ccc(C(F)(F)F)cc2)C(=O)N(C)CC(=O)N[C@@H](CCc2ccc(C(F)(F)F)c(Cl)c2)C(=O)N2CC3(CC3)C[C@H]2C(=O)NC2(CCC2)C(=O)N(C)[C@@H](C(CC)CC)C(=O)N(C)[C@H](C(=O)N(C)C)CC(=O)N1C [PP3414] | 0.37 | AA (a compound having 20 or more is denoted as AA) | 29 | 29.3 | 13 | 50.9 | 11.9 | A (a compound having 10 or more and less than 20 is denoted as A) | 19.7 | 4.3 | 
CCC[C@H]1C(=O)N[C@@H]([C@@H](C)CC)C(=O)N(C)CC(=O)N(C)[C@H]2C/C=C\CCN(C2=O)[C@@H](Cc2ccc(C)cc2)C(=O)N(C)CC(=O)N[C@@H](CCc2cc(F)c(C(F)(F)F)c(F)c2)C(=O)N2CC3(CC3)C[C@H]2C(=O)N(C)C2(CCC2)C(=O)N(C)[C@@H](C2CCCC2)C(=O)N(C)[C@H](C(=O)N(C)C)CC(=O)N1C [PP3327] | 0.019 | A (a compound having 10 or more and less than 20 is denoted as A) | 0.6 | 4 | 0.7 | 1.6 | 4.4 | A (a compound having 10 or more and less than 20 is denoted as A) | 2.4 | 0.5 | 
CCO[C@@H]1C[C@H]2C(=O)N(C)C3(CCC3)C(=O)N(C)[C@@H](C3CCCC3)C(=O)N(C)[C@H](C(=O)N(C)C)CC(=O)N(C)[C@@H](CC(C)C)C(=O)N[C@@H]([C@@H](C)CC)C(=O)N(C)CC(=O)N(C)[C@H]3C/C=C\CCN(C3=O)[C@@H](Cc3ccc(C(F)(F)F)cc3)C(=O)N(C)CC(=O)N[C@@H](CCc3cc(F)c(C(F)(F)F)c(F)c3)C(=O)N2C1 [PP3484, (2S,8S,12R,14S,20S,23S,27S,30S,36S,38Z)-20-cyclopentyl-8-[2-[3,5-difluoro-4-(trifluoromethyl)phenyl]ethyl]-12-ethoxy-27-isobutyl-N,N,4,16,19,22,26,32,35-nonamethyl-30-[(1S)-1-methylpropyl]-3,6,9,15,18,21,25,28,31,34,42-undecaoxo-2-[[4-(trifluoromethyl)phenyl]methyl]spiro[1,4,7,10,16,19,22,26,29,32,35-undecazatricyclo[34.5.1.0^10,14]dotetracont-38-ene-17,1'-cyclobutane]-23-carboxamide] | 0.027 | A (a compound having 10 or more and less than 20 is denoted as A) | 0.9 | 1.9 | 1.8 | 4.1 | 2.2 | A (a compound having 10 or more and less than 20 is denoted as A) | 3.1 | 0.6 | 
CCO[C@@H]1C[C@H]2C(=O)NC3(CC(C)(C)C3)C(=O)N(C)[C@@H](C3CCCC3)C(=O)N(C)[C@H](C(=O)N(C)C)CC(=O)N(C)[C@@H]([C@@H](C)OC)C(=O)N[C@@H]([C@@H](C)CC)C(=O)N(C)CC(=O)N(C)[C@H]3C/C=C\CCN(C3=O)[C@@H](Cc3ccc(C(F)(F)F)cc3)C(=O)N(C)CC(=O)N[C@@H](CCc3ccc(C(F)(F)F)c(OC)c3)C(=O)N2C1 [PP3194, (2S,8S,12R,14S,20S,23S,27S,30S,36S,38Z)-20-cyclopentyl-12-ethoxy-27-[(1R)-1-methoxyethyl]-8-[2-[3-methoxy-4-(trifluoromethyl)phenyl]ethyl]-N,N,3',3',4,19,22,26,32,35-decamethyl-30-[(1S)-1-methylpropyl]-3,6,9,15,18,21,25,28,31,34,42-undecaoxo-2-[[4-(trifluoromethyl)phenyl]methyl]spiro[1,4,7,10,16,19,22,26,29,32,35-undecazatricyclo[34.5.1.0^10,14]dotetracont-38-ene-17,1'-cyclobutane]-23-carboxamide] |  | A (a compound having 10 or more and less than 20 is denoted as A) | 2.7 | 6.8 | 2.8 | 7.7 | 2.9 | A (a compound having 10 or more and less than 20 is denoted as A) | 2.5 | 0.6 | 0.041
CCO[C@@H]1C[C@H]2C(=O)OC3(CCC3)C(=O)N(C)[C@@H](C3CCCC3)C(=O)N(C)[C@H](C(=O)N(C)C)CC(=O)N(C)[C@@H]([C@@H](C)OC)C(=O)N[C@@H]([C@@H](C)CC)C(=O)N(C)CC(=O)N(C)[C@H]3C/C=C\CCN(C3=O)[C@@H](Cc3ccc(C)cc3)C(=O)N(C)CC(=O)N[C@@H](CCc3ccc(C(F)(F)F)c(OC)c3)C(=O)N2C1 [PP3394, (2S,8S,12R,14S,20S,23S,27S,30S,36S,38Z)-20-cyclopentyl-12-ethoxy-27-[(1R)-1-methoxyethyl]-8-[2-[3-methoxy-4-(trifluoromethyl)phenyl]ethyl]-N,N,4,19,22,26,32,35-octamethyl-30-[(1S)-1-methylpropyl]-3,6,9,15,18,21,25,28,31,34,42-undecaoxo-2-(p-tolylmethyl)spiro[16-oxa-1,4,7,10,19,22,26,29,32,35-decazatricyclo[34.5.1.0^10,14]dotetracont-38-ene-17,1'-cyclobutane]-23-carboxamide] | 0.1 | A (a compound having 10 or more and less than 20 is denoted as A) | 1.8 | 3.9 | 2.5 | 4.7 | 4.1 | A (a compound having 10 or more and less than 20 is denoted as A) | 3.9 | 0.4 | 
CCC[C@H]1C(=O)N[C@@H]([C@@H](C)CC)C(=O)N(C)CC(=O)N(C)[C@H]2C/C=C\CCN(C2=O)[C@@H](Cc2ccc(C(F)(F)F)cc2)C(=O)N(C)CC(=O)N[C@@H](CCc2cc(F)c(C(F)(F)F)c(F)c2)C(=O)N2CC3(CC3)C[C@H]2C(=O)N(C)C2(CCC2)C(=O)N(C)[C@@H](C2CCCC2)C(=O)N(C)[C@H](C(=O)N(C)C)CC(=O)N1C [PP3356] | 0.044 | A (a compound having 10 or more and less than 20 is denoted as A) | 1.3 | 4.9 | 1.5 | 2.5 | 2.3 | A (a compound having 10 or more and less than 20 is denoted as A) | 4 | 1 | 
